# Test results as given in patent US6809193B2, “Antisense oligonucleotide compositions and methods for the modulation of JNK proteins” (ISIS Pharmaceuticals, Inc., priority 1997, dated 2004).
# Strand notation (5' to 3'): a small letter for the sugar, then the base; units joined by * are phosphorothioate-linked, units joined directly phosphodiester-linked; [ ] holds rarer units or linkages, { } end groups; capitals alone tell only the bases. Where a SMILES comes first, the peptide text is derived from it. The star is where a group is joined. e = 2'-O-(2-methoxyethyl) (MOE); [5mC] = 5-methylcytosine; Cbz = O=C(OCc1ccccc1)*; d = 2'-deoxy (DNA); CH2F = FC*
# How the values were obtained:
# JNK1 protein = test: Western assay, JNK1 protein levels in A549 cells; format: cell-based, human; details: t = 72 h
# Description: (§1) In order to evaluate the activity of potential JNK-modulating oligonucleotides, human lung carcinoma cell line A549 (American Type Culture Collection, 10801 University Boulevard, Manassas, Va. 20110-2209, No. ATCC CCL-185) cells or other cell lines as indicated in the Examples, were grown and treated with oligonucleotides or control solutions as detailed below. After harvesting, cellular extracts were prepared and examined for specific JNK mRNA levels or JNK protein levels (i.e., Northern or Western assays, respectively). In all cases, “% expression” refers to the amount of JNK-specific signal in an oligonucleotide-treated cell relative to an untreated cell (or a cell treated with a control solution that lacks oligonucleotide), and “% inhibition” is calculated as
# A549 cells were grown and treated with oligonucleotides as described above. […] The amount of each JNK protein was determined by using a primary antibody that specifically recognizes the appropriate JNK protein. […]
# In order to assess the effect of oligonucleotides targeted to JNK1 mRNAs on JNK1 protein levels, Western assays were performed essentially as described above in Example 2, with the following exception(s) and/or modification(s). […] The samples from t=48 h and t=72 h were analyzed using the Northern and Western assays described above.
# JNK1 mRNA = test: Northern assay, JNK1 mRNA expression in A549 cells; format: cell-based, human; details: for inhibition of JNK1 mRNA expression: 400 nM, Northern assay, Table 5; for RNA % Inhibition: JNK1 mRNA
# MDA-MB-231 tumors = test: MDA-MB-231 human tumor xenograft in nude mice; format: in vivo; details: 25 mg/kg intravenous once daily; for tumor growth compared to the saline control: MDA-MB-231 tumors; for Mean Tumor Volume (cm^3): nude mice
# Description: Approximately 5×10^6 breast adenocarcinoma cells (cell line MDA-MB-231; American Type Culture Collection, 10801 University Boulevard, Manassas, Va. 20110-2209, No. ATCC HTB-26) were implanted subcutaneously in the right inner thigh of nude mice (n=6 for each of three sets of mice). Oligonucleotides ISIS 15346 (JNK1, SEQ ID NO:16) and 15353 (JNK2, SEQ ID NO:31) were suspended in saline and administered once daily to two sets of mice on the first day the tumor volume was about 100 mm^3. A saline-only (0.9% NaCl) solution was given to a third set of animals as a control. Oligonucleotides were given by intravenous injection at a dosage of 25 mg/kg. Tumor size was measured and tumor volume was calculated on days 12, 19, 26 and 33 following tumor cell inoculation.
# JNK2 mRNA = test: Northern assay, JNK2 mRNA expression in A549 cells; format: cell-based, human; details: for dose- and sequence-dependent response on JNK2 mRNA levels: A549 cells, 50, 100, 200 and 400 nM
# Description: as §1
# 100%−%Expression=%Inhibition.
# The mRNA expression of each JNK protein was determined by using a nucleic acid probe specifically hybridizable thereto. Nucleic acid probes specific for JNK1, JNK2 and JNK3 are described in Examples 3, 4 and 5, respectively. The probes were radiolabelled by means well known in the art (see, e.g., Short Protocols in Molecular Biology, 2nd Ed., Ausubel et al., Eds., John Wiley & Sons, New York, 1992, pages 3-11 to 2-3-44 and 4-17 to 4-18; Ruth, Chapter 6 In: Methods in Molecular Biology, Vol. 26: Protocols for Oligonucleotide Conjugates, Agrawal, ed., Humana Press Inc., Totowa, N.J., 1994, pages 167-185; and Chapter 10 In: Molecular Cloning: A Laboratory Manual, 2nd Ed., Sambrook et al., Eds., pages 10.1-10.70). The blots were stripped and reprobed with a ^32P-labeled glyceraldehyde 3-phosphate dehydrogenase (G3PDH) probe (Clontech Laboratories, Inc., Palo Alto, Calif.) in order to confirm equal loading of RNA and to allow the levels of JNK transcripts to be normalized with regard to the G3PDH signals.
# A549 cells were grown in T-75 flasks until 80-90% confluent. At this time, the cells were washed twice with 10 mL of media (DMEM), followed by the addition of 5 mL of DMEM containing 20 μg/mL of LIPOFECTIN™ (i.e., 1:1 (w/w) DOTMA/DOPE, Life Technologies, Gaithersburg, Md.; DOTMA=N-[1-(2,3-dioleyoxy)propyl]-N,N,N-trimethylammonium chloride; DOPE=dioleoyl phosphatidylethanolamine). The oligonucleotides were added from a 10 μM stock solution to a final concentration of 400 nM, and the two solutions were mixed by swirling the flasks. As a control, cells were treated with LIPOFECTIN™ without oligonucleotide under the same conditions and for the same times as the oligonucleotide-treated samples. After 4 hours at 37° C., the medium was replaced with fresh DMEM containing 10% serum. The cells were allowed to recover for 18 hours. Total cellular RNA was then extracted in guanidinium, subject to gel electrophoresis and transferred to a filter according to techniques known in the art (see, e.g., Chapter 7 In: Molecular Cloning: A Laboratory Manual, 2nd Ed., Sambrook et al., Eds., pages 7.1-7.87, and Short Protocols in Molecular Biology, 2nd Ed., Ausubel et al., Eds., John Wiley & Sons, New York, 1992, pages 2-24 to 2-30 and 4-14 to 4-29). Filters were typically hybridized overnight to a probe specific for the particular JNK gene of interest in hybridization buffer (25 mM KPO4, pH 7.4; 5×SSC; 5× Denhardt's solution, 100 μg/ml Salmon sperm DNA and 50% formamide) (Alahari et al., Nucl. Acids Res., 1993, 21, 4079). This was followed by two washes with 1×SSC, 0.1% SDS and two washes with 0.25×SSC, 0.1% SDS. Hybridizing bands were visualized by exposure to X-OMAT AR film and quantitated using a PHOSPHORIMAGER™ essentially according to the manufacturer's instructions (Molecular Dynamics, Sunnyvale, Calif.).
# In initial screenings of a set of oligonucleotides derived from the JNK2 sequence (Table 9) for biological activity, a cDNA clone of JNK2 (Kallunki et al., Genes & Development, 1994, 8, 2996) was radiolabeled and used as a JNK2-specific probe in Northern blots. […]
# HUVEC = test: Apoptosis in HUVEC, percent hypodiploid cells by flow cytometry; format: cell-based, human; details: HUVEC treated with JNK2 oligonucleotide plus the agent
# JNK activity = test: TNFa-induced JNK activity in HUVEC (GST-c-Jun phosphorylation); format: cell-based, human; details: 100 nM, 5 ng/ml TNFa 15 minutes, compared to a control oligonucleotide
compound,measurement,setting,value
"15346 (antisense CTCTCTGTAGGCCCGCTTGG; gapmer, 2'-MOE wings, phosphorothioate, chemistry not fully specified) [compound 15346]",Protein % Inhibition,JNK1 protein,74.3%
same,inhibition of JNK1 mRNA expression,JNK1 mRNA,at least 88%
same,tumor growth compared to the saline control,MDA-MB-231 tumors,inhibited tumor growth compared to the saline control
"15347 (antisense CTCTCTGTAGGCCCGCTTGG; gapmer, 2'-MOE P=O wings, P=S deoxy core, chemistry not fully specified) [compound 15347]",Protein % Inhibition,JNK1 protein,71.6%
same,inhibition of JNK1 mRNA expression,JNK1 mRNA,at least 88%
same,RNA % Inhibition,"JNK1 mRNA; t = 48 h, 300 nM for initial 20 hours then 200 nM for 4 hours",> 70%
same,RNA % Inhibition,JNK1 mRNA; t = 72 h,> 70%
15353 (antisense eG*eT*e[5mC]*e[5mC]*eG*dG*dG*dC*dC*dA*dG*dG*dC*dC*eA*eA*eA*eG*eT*e[5mC]) [compound 15353],inhibition of JNK2 mRNA expression,"JNK2 mRNA; 400 nM, Northern assay, Table 12",approximately 80%
same,tumor growth compared to the saline control,MDA-MB-231 tumors,inhibited tumor growth compared to the saline control
C[C@@H]1C[C@@H]([C@H](O)CC2CC(=O)NC(=O)C2)C(=O)[C@@H](C)C1 [cyclohexamide],effect on JNK2 oligonucleotide-induced cell death (apoptosis),HUVEC,had no effect on apoptosis
"COC(=O)C[C@H](NC(=O)[C@H](C)NC(=O)[C@@H](NC(=O)OCc1ccccc1)C(C)C)C(=O)CF [z-FAD.fmk, z-VAD.fmk] (Cbz-Val-Ala-Asp(OMe)-CH2F)",effect on JNK2 oligonucleotide-induced cell death (apoptosis),HUVEC,decreased
"CTC-TCT-GTA-GGC-CCG-CTT-GG (antisense dC*dT*dC*dT*dC*dT*dG*dT*dA*dG*dG*dC*dC*dC*dG*dC*dT*dT*dG*dG) [ISIS 12539, human JNK1 antisense, fully P=S and fully 2′-deoxy]",dose- and sequence-dependent response on JNK2 mRNA levels,JNK2 mRNA,dependent on dose in an approximately linear fashion
same,dose- and sequence-dependent response on JNK1 mRNA levels,"JNK1 mRNA; A549 cells, 50, 100, 200 and 400 nM",dependent on dose in an approximately linear fashion
same,% Inhibition,"JNK1 mRNA; JNK1 mRNA time course, 48 h",greater than or equal to 80%
"C^sT^sC^sT^sC^sT^sG^sT^sA^sG^sG^sC^sC^sC^sG^sC^sT^sT^sG^sG (antisense CTCTCTGTAGGCCCGCTTGG; all phosphorothioate, sugars by position and methylation of C not given here) [ISIS 15346, JNK1 gapmer: P=S, 2′-MOE wings; P=S, 2′-deoxy core]",inhibition of TNFa-induced JNK activity,JNK activity,approximately 70%
same,Mean Tumor Volume (cm^3),MDA-MB-231 tumors; Day 12 following tumor cell inoculation,0.122 cm^3
same,Mean Tumor Volume (cm^3),MDA-MB-231 tumors; Day 19,0.255 cm^3
same,Mean Tumor Volume (cm^3),MDA-MB-231 tumors; Day 26,0.400 cm^3
same,Mean Tumor Volume (cm^3),MDA-MB-231 tumors; Day 33,0.638 cm^3
"G^SA^SC^ST^ST^ST^SG^SG^SC^SC^ST^SG^SG^SC^SC^SC^SG^SG^SA^SC (GACTTTGGCCTGGCCCGGAC; DNA, all phosphorothioate, methylation of C not given here) [ISIS 14318, 12560 sense control, 2′-deoxy-phosphorothioate, reference compound]",dose- and sequence-dependent response on JNK2 mRNA levels,JNK2 mRNA,neither of the control oligonucleotides effect any consistent response
"G^ST^SG^SC^SG^SC^SG^SC^SG^SA^SG^SC^SC^SC^SG^SA^SA^SA^ST^SC (GTGCGCGCGAGCCCGAAATC; DNA, all phosphorothioate, methylation of C not given here) [ISIS 14319, 12560 scrambled control, 2′-deoxy-phosphorothioate, reference compound]",dose- and sequence-dependent response on JNK2 mRNA levels,JNK2 mRNA,neither of the control oligonucleotides effect any consistent response
